ChEMBL document CHEMBL5257062, “Synthesis, in vitro cytotoxicity evaluation and mechanism of 5' monosubstituted chalcone derivatives as antitumor agents” (Bioorg Med Chem Lett, 2023)
Calls of active or inactive are those of the source. No cut-off for these calls is given here.

Tests used:
HT-29 = test: Cytotoxicity against human HT-29 cells by MTT assay; type: functional, cell-based
K562 [1] = test: Cytotoxicity against human K562 cells by MTT assay; type: functional, cell-based
HepG2 [2] = test: Cytotoxicity against human HepG2 cells by MTT assay; type: functional, cell-based
[3] = Cytotoxicity against HEK293T cells; type: toxicity, cell-based, HEK-293T; conditions: human
[4] = Cytotoxicity against HUVEC cells; type: toxicity, cell-based; conditions: human
MDA-MB-231 = test: Cytotoxicity against human MDA-MB-231 cells; type: functional, cell-based
K562 [5] = test: Induction of cell cycle arrest in human K562 cells assessed as accumulation of cells at G1 phase at 20 uM incubated for 12 hrs by flow cytometry (reference value: 71.17%); type: functional
HepG2 [6] = test: Inhibition of cell migration human HepG2 cells assessed as migration distance at 0.3 uM incubated for 24 hrs by wound healing assay (reference value: 424.41 micrometer); type: functional
K562 [7] = test: Induction of cell cycle arrest in human K562 cells assessed as accumulation of cells at S phase at 2 uM incubated for 24 hrs by flow cytometry (reference value: 17.51%); type: functional
K562 [8] = test: Induction of cell cycle arrest in human K562 cells assessed as accumulation of cells at G2 phase at 2 uM incubated for 24 hrs by flow cytometry (reference value: 0.27%); type: functional
HepG2 [9] = test: Inhibition of cell migration human HepG2 cells assessed as migration distance at 1 uM incubated for 12 hrs by wound healing assay (reference value: 566.76 micrometer); type: functional
K562 [10] = test: Induction of apoptosis in human K562 cells at 2 uM after 24 hrs by annexin V-FITC and PI staining based method (reference value: 9%); type: functional
K562 [11] = test: Induction of cell cycle arrest in human K562 cells assessed as accumulation of cells at G1 phase at 2 uM incubated for 12 hrs by flow cytometry (reference value: 71.17%); type: functional
K562 [12] = test: Induction of apoptosis in human K562 cells assessed as inhibition of cell growth at 2 to 20 uM; type: functional, cell-based; conditions: dose 2-20 µM, time 12-72 hrs, TDE = time-dependent effect
HepG2 [13] = test: Inhibition of cell migration human HepG2 cells assessed as migration distance at 3 uM incubated for 36 hrs by wound healing assay (reference value: 243.56 micrometer); type: functional
K562 [14] = test: Induction of cell cycle arrest in human K562 cells assessed as accumulation of cells at G2 phase at 20 uM incubated for 24 hrs by flow cytometry (reference value: 0.27%); type: functional
K562 [15] = test: Induction of cell cycle arrest in human K562 cells assessed as accumulation of cells at G2 phase at 20 uM incubated for 6 hrs by flow cytometry (reference value: 13.40%); type: functional
HepG2 [16] = test: Inhibition of cell migration human HepG2 cells assessed as migration distance at 3 uM incubated for 24 hrs by wound healing assay (reference value: 424.41 micrometer); type: functional
HepG2 [17] = test: Inhibition of cell migration human HepG2 cells at 0.3 to 3 uM incubated for 48 hrs by Transwell assay; type: functional, cell-based; conditions: dose 0.3-3 µM
K562 [18] = test: Induction of apoptosis in human K562 cells assessed as inhibition of cell growth after 12 to 72 hrs; type: functional, cell-based; conditions: dose 0.2-20 µM, time 12-72 hrs
K562 [19] = test: Induction of apoptosis in human K562 cells at 20 uM after 48 hrs by annexin V-FITC and PI staining based method (reference value: 9.8%); type: functional
K562 [20] = test: Induction of cell cycle arrest in human K562 cells assessed as accumulation of cells at G2 phase at 20 uM incubated for 12 hrs by flow cytometry (reference value: 11.93%); type: functional
K562 [21] = test: Induction of cell cycle arrest in human K562 cells assessed as accumulation of cells at G1 phase at 20 uM incubated for 6 hrs by flow cytometry (reference value: 57.73%); type: functional
K562 [22] = test: Induction of cell cycle arrest in human K562 cells assessed as accumulation of cells at S phase at 20 uM incubated for 6 hrs by flow cytometry (reference value: 28.87%); type: functional
K562 [23] = test: Induction of cell cycle arrest in human K562 cells assessed as accumulation of cells at S phase at 2 uM incubated for 6 hrs by flow cytometry (reference value: 28.87%); type: functional
K562 [24] = test: Induction of apoptosis in human K562 cells at 20 uM after 24 hrs by annexin V-FITC and PI staining based method (reference value: 9%); type: functional
HCT-116 = test: Cytotoxicity against human HCT-116 cells; type: functional, cell-based
K562 [25] = test: Induction of cell cycle arrest in human K562 cells assessed as accumulation of cells at G1 phase at 20 uM incubated for 24 hrs by flow cytometry (reference value: 82.22%); type: functional
HepG2 [26] = test: Inhibition of cell migration human HepG2 cells assessed as migration distance at 1 uM incubated for 48 hrs by wound healing assay (reference value: 0 micrometer); type: functional
K562 [27] = test: Induction of cell cycle arrest in human K562 cells assessed as accumulation of cells at S phase at 20 uM incubated for 12 hrs by flow cytometry (reference value: 16.9%); type: functional
K562 [28] = test: Induction of apoptosis in human K562 cells at 2 uM after 48 hrs by annexin V-FITC and PI staining based method (reference value: 9.8%); type: functional
HepG2 [29] = test: Inhibition of cell migration human HepG2 cells assessed as migration distance at 0.3 uM incubated for 12 hrs by wound healing assay (reference value: 566.76 micrometer); type: functional
HepG2 [30] = test: Inhibition of cell migration human HepG2 cells assessed as migration distance at 3 uM incubated for 48 hrs by wound healing assay (reference value: 0 micrometer); type: functional
HepG2 [31] = test: Inhibition of cell migration human HepG2 cells assessed as migration distance at 1 uM incubated for 36 hrs by wound healing assay (reference value: 243.56 micrometer); type: functional
K562 [32] = test: Induction of cell cycle arrest in human K562 cells assessed as accumulation of cells at S phase at 2 uM incubated for 12 hrs by flow cytometry (reference value: 16.9%); type: functional
HepG2 [33] = test: Inhibition of cell migration human HepG2 cells assessed as migration distance at 0.3 uM incubated for 36 hrs by wound healing assay (reference value: 243.56 micrometer); type: functional
K562 [34] = test: Induction of cell cycle arrest in human K562 cells assessed as accumulation of cells at G1 phase at 2 uM incubated for 24 hrs by flow cytometry (reference value: 82.22%); type: functional
HepG2 [35] = test: Inhibition of cell migration human HepG2 cells assessed as migration distance at 3 uM incubated for 12 hrs by wound healing assay (reference value: 566.76 micrometer); type: functional
K562 [36] = test: Induction of apoptosis in human K562 cells at 20 uM after 12 hrs by annexin V-FITC and PI staining based method (reference value: 8.4%); type: functional
K562 [37] = test: Induction of apoptosis in human K562 cells at 2 uM after 12 hrs by annexin V-FITC and PI staining based method (reference value: 8.4%); type: functional
K562 [38] = test: Induction of cell cycle arrest in human K562 cells assessed as accumulation of cells at G2 phase at 2 uM incubated for 12 hrs by flow cytometry (reference value: 11.93%); type: functional
HepG2 [39] = test: Inhibition of cell migration human HepG2 cells assessed as migration distance at 1 uM incubated for 24 hrs by wound healing assay (reference value: 424.41 micrometer); type: functional
K562 [40] = test: Induction of cell cycle arrest in human K562 cells assessed as accumulation of cells at G2 phase at 2 uM incubated for 6 hrs by flow cytometry (reference value: 13.40%); type: functional
HepG2 [41] = test: Inhibition of cell migration human HepG2 cells assessed as migration distance at 0.3 uM incubated for 48 hrs by wound healing assay (reference value: 0 micrometer); type: functional
K562 [42] = test: Induction of cell cycle arrest in human K562 cells assessed as accumulation of cells at S phase at 20 uM incubated for 24 hrs by flow cytometry (reference value: 17.51%); type: functional
K562 [43] = test: Induction of apoptosis in human K562 cells assessed as appearance of apoptotic bodies at 2 to 20 uM by light microscopic analysis; type: functional, cell-based; conditions: dose 2-20 µM, TDE = time-dependent effect
K562 [44] = test: Induction of cell cycle arrest in human K562 cells assessed as accumulation of cells at G1 phase at 2 uM incubated for 6 hrs by flow cytometry (reference value: 57.73%); type: functional

For `COc1cc(OC)c(-c2ccc(-c3ccco3)cc2)cc1C(=O)/C=C/c1ccccc1`, the IC50 (HT-29) was 6.17 µM, the IC50 (K562 [1]) was 4.69 µM and the IC50 (HepG2 [2]) was 5.91 µM.

`COc1cc(OC)c(-c2ccc(C(F)(F)F)cc2)cc1C(=O)/C=C/c1ccccc1` showed an IC50 (HT-29) of over 10 µM, an IC50 (K562 [1]) of 8.7 µM and an IC50 (HepG2 [2]) of over 10 µM.

Compound `COc1cc(OC)c(-c2ccc(OC(C)=O)cc2)cc1C(=O)/C=C/c1ccccc1` has an IC50 (HT-29) of over 10 µM, an IC50 (K562 [1]) of over 10 µM and an IC50 (HepG2 [2]) of over 10 µM.

Work on `COc1cc(OC)c(-c2ccc(C)cc2)cc1C(=O)/C=C/c1ccccc1` yielded an IC50 (HT-29) of 9.29 µM, an IC50 (K562 [1]) of 2.59 µM and an IC50 (HepG2 [2]) of over 10 µM.

In the case of `CC[C@@]1(O)C(=O)OCc2c1cc1n(c2=O)Cc2cc3ccccc3nc2-1` [CAMPTOTHECIN], the IC50 (HT-29) is reported as 0.07 µM, the IC50 (K562 [1]) is reported as 0.04 µM and the IC50 [3] is reported as 0.03 µM. It also gave an IC50 [4] of 0.06 µM, an IC50 (HepG2 [2]) of 0.02 µM and an IC50 (MDA-MB-231) of over 100 µM.

With `COc1cc(OC)c(-c2ccccc2)cc1C(=O)/C=C/c1ccccc1` the IC50 (HT-29) was 9.17 µM, the IC50 (K562 [1]) was 3.83 µM and the IC50 (HepG2 [2]) was over 10 µM.

For `COc1ccc(-c2cc(C(=O)/C=C/c3ccccc3)c(OC)cc2OC)cc1`, the IC50 (HT-29) was over 10 µM, the IC50 (K562 [1]) was 7.26 µM and the IC50 (HepG2 [2]) was over 10 µM.

With `COc1cc(OC)c(-c2ccc(F)cc2)cc1C(=O)/C=C/c1ccccc1` the Activity (K562 [5]) was 52.57%, the Activity (HepG2 [6]) was 438 um and the Activity (K562 [7]) was 37.74%. For the same compound, the Activity (K562 [8]) was 7.97%, the Activity (HepG2 [9]) was 551.11 um and the Activity (K562 [10]) was 12%. For the same compound, the IC50 (HT-29) was 7.69 µM, the Activity (K562 [11]) was 58.31% and the Activity (K562 [12]) was “Tde”. It also gave an Activity (HepG2 [13]) of 423.28 um, an Activity (K562 [14]) of 1.33% and an Activity (K562 [15]) of 9.25%. The IC50 (K562 [1]) was 1.97 µM, the Activity (HepG2 [16]) was 488.94 um and the inhibition (HepG2 [17]) was “Active”. For the same compound, the IC50 [3] was 5.19 µM, the Activity (K562 [18]) was “Dose-Dependent Effect” and the Activity (K562 [19]) was 62.6%. The Activity (K562 [20]) was 10.88%, the Activity (K562 [21]) was 60.44% and the IC50 [4] was 19.7 µM. The Activity (K562 [22]) was 30.33%, the Activity (K562 [23]) was 29.62% and the Activity (K562 [24]) was 19.8%. For the same compound, the IC50 (HCT-116) was 5.17 µM, the Activity (K562 [25]) was 54.29% and the IC50 (HepG2 [2]) was 2.23 µM. The Activity (HepG2 [26]) was 301.44 um, the Activity (K562 [27]) was 36.55% and the Activity (K562 [28]) was 32%. It also gave an Activity (HepG2 [29]) of 532.4 um, an Activity (HepG2 [30]) of 337.11 um and an Activity (HepG2 [31]) of 401.52 um. The Activity (K562 [32]) was 29.39%, the Activity (HepG2 [33]) was 294.54 um and the Activity (K562 [34]) was 54.29%. It also gave an Activity (HepG2 [35]) of 534.71 um, an Activity (K562 [36]) of 11.9% and an Activity (K562 [37]) of 8.1%. It also gave an Activity (K562 [38]) of 12.29%, an IC50 (MDA-MB-231) of 10.7 µM and an Activity (HepG2 [39]) of 486.95 um. For the same compound, the Activity (K562 [40]) was 11.61%, the Activity (HepG2 [41]) was 245.7 um and the Activity (K562 [42]) was 44.38%. The Activity (K562 [43]) was “Tde” and the Activity (K562 [44]) was 58.77%.

`COc1cc(OC)c(-c2ccc(C#N)cc2)cc1C(=O)/C=C/c1ccccc1` gave an IC50 (HT-29) of over 10 µM, an IC50 (K562 [1]) of over 10 µM and an IC50 (HepG2 [2]) of over 10 µM.
